Results published in patent publication US20220105127A1, “METHODS FOR PROVIDING THE BENEFITS OF METHIONINE RESTRICTION WITHOUT DIETARY RESTRICTION” (priority 2020, published 2022).

Experiments:
Type in all cases: in vivo, mouse
IGF-1 [1] = assay: Experiment 2: high-fat diet with first compounds, plasma IGF-1 ELISA; conditions: for Plasma IGF-1, Females / Plasma IGF-1, Males: high-fat diet 9 weeks, untreated = 100%, lysine 6.45%, OBS 4.3%, SPC 4.3% of food; for Plasma IGF-1, Males: male mice
Experimental: (§1) Food and water were provided ad libitum.
(§2) Body mass and food consumption were monitored once a week for sixteen weeks. Prior to blood collection, animals were fasted for 4 hours to establish a physiological baseline. Blood was then collected from the retro-orbital plexus and processed using EDTA-K2-coated blood collection tubes (Milian Dutscher Group; Geneva, Switzerland). The resulting plasma was frozen and stored at −80° C. until used for analysis. A portion of each blood sample was used for blood glucose determination using an Abbott Freestyle Lite glucometer and glucose strips (Abbott Diabetes Care, Inc.; Alameda, Calif.). At the end of each study, animals were fasted and bled, as described above. The mice were then sacrificed, their overall body condition was assessed, and certain physiological parameters were measured. The inguinal and perigonadal fat pads, as well as liver of each mouse, were harvested by surgical resection, weighed, flash frozen, and stored at −80° C.
(§3) Enzyme-linked immunosorbent assay (ELISA) kits were obtained commercially and used to measure plasma levels of IGF-1 (R&D Systems; Minneapolis, Minn.), adiponectin (R&D Systems), FGF-21 (Millipore Corp.; Billerica, Mass.), leptin (R&D Systems), growth hormone (Millipore Corp.), and insulin (ALPCO Diagnostics; Salem, N.H.). Tests were performed according to the manufacturers' recommendations and measured using a Molecular Devices SpectraMax M5 Microplate Reader (Molecular Devices LLC; San Jose, Calif.). Two technical replicates were performed for each sample and the statistical significance of the resulting values determined by unpaired two-tailed t-tests using the software package Prism 8 (Graph-Pad Software; La Jolla, Calif.).

adiponectin [2] = assay: Experiment 2: high-fat diet with first compounds, plasma adiponectin ELISA; conditions: high-fat diet 9 weeks, untreated = 100%, lysine 6.45%, OBS 4.3%, SPC 4.3% of food; for Plasma Adiponectin, Females: female mice; for Plasma Adiponectin, Males: male mice
Experimental: as §1, §2, §3

FGF-21 [3] = assay: Experiment 2: high-fat diet with first compounds, plasma FGF-21 ELISA; conditions: untreated = 100%; for Plasma FGF-21, Females: female mice, high-fat diet 9 weeks, lysine 6.45%, OBS 4.3%, SPC 4.3% of food
Experimental: as §1, §2, §3

plasma glucose [4] = assay: Experiment 2: high-fat diet with first compounds, plasma glucose; conditions: for Plasma Glucose, Females / Plasma Glucose, Males: high-fat diet 9 weeks, untreated = 100%, lysine 6.45%, OBS 4.3%, SPC 4.3% of food; for Plasma Glucose, Males: male mice
Experimental: as §1, §2

leptin [5] = assay: Experiment 2: high-fat diet with first compounds, plasma leptin ELISA; conditions: for Plasma Leptin, Females / Plasma Leptin, Males: high-fat diet 9 weeks, untreated = 100%, lysine 6.45%, OBS 4.3%, SPC 4.3% of food; for Plasma Leptin, Males: male mice
Experimental: as §1, §2, §3

insulin [6] = assay: Experiment 2: high-fat diet with first compounds, plasma insulin ELISA; conditions: for Plasma Insulin, Females / Plasma Insulin, Males: high-fat diet 9 weeks, untreated = 100%, lysine 6.45%, OBS 4.3%, SPC 4.3% of food; for Plasma Insulin, Males: male mice
Experimental: as §1, §2, §3

C57BL/6J mice [7] = assay: Experiment 2: high-fat diet with first compounds, body mass and inguinal/perigonadal fat pad mass; conditions: for Total Body Mass, Females / Inguinal Fat Mass, Females / Perigonadal Fat Mass, Females / Total Body Mass, Males / Inguinal Fat Mass, Males / Perigonadal Fat Mass, Males: high-fat diet 9 weeks, untreated = 100%, lysine 6.45%; for Total Body Mass, Females / Total Body Mass, Males: O-benzyl serine 4.3%, S-phenyl cysteine 4.3% of food; for Inguinal Fat Mass, Females / Perigonadal Fat Mass, Females / Inguinal Fat Mass, Males / Perigonadal Fat Mass, Males: OBS 4.3%, SPC 4.3% of food; for Total Body Mass, Males / Inguinal Fat Mass, Males / Perigonadal Fat Mass, Males: male mice; for Total Body Mass, Males: tryptophan dose not given
Experimental: as §1
as §2, with “Prior” for “Body mass and food consumption were monitored once a week for sixteen weeks. Prior”

plasma glucose [8] = assay: Experiment 1: high-fat diet with selenium compounds, plasma glucose; conditions: untreated = 100%, sodium selenite 0.0073% of food
Experimental: (§4) All animal studies conducted were approved by the Institutional Animal Care and Use Committee (IACUC) of the Orentreich Foundation for the Advancement of Science, Inc. (Permit Number: 0511 MB). C57BL/6J mice (stock number 000664) were purchased from the Jackson Laboratories (Bar Harbor, Me.) and housed in a conventional animal facility maintained at 20±2° C., 50±10% relative humidity, with a 12 hr/12 hr light/dark photoperiod. Food and water were provided ad libitum. Upon arrival, mice were acclimatized for up to one week and fed Purina Lab Chow 5001 (Ralston Purina, Co.; St. Louis, Mo.).
(§5) At the beginning of the experiment, the mice were divided into 5 groups with each group being fed one of five isocaloric (5.3 kcal/gm) high-fat diets ad libitum for several weeks. Each high-fat diet comprising a base of 12% kcal protein, 31% kcal carbohydrate, and 57% kcal fat. […] Amounts of selenium-containing compounds used for this and subsequent experiments were determined from pilot studies aimed at identifying minimal doses that still achieve high efficacy. […]
(§6) Body mass and food consumption were monitored once a week for sixteen weeks. […] The mice were then sacrificed, their overall body condition was assessed, and certain physiological parameters were measured. […]

leptin [9] = assay: Experiment 1: high-fat diet with selenium compounds, plasma leptin ELISA
Experimental: as §4
(§7) At the beginning of the experiment, the mice were divided into 5 groups with each group being fed one of five isocaloric (5.3 kcal/gm) high-fat diets ad libitum for several weeks. Each high-fat diet comprising a base of 12% kcal protein, 31% kcal carbohydrate, and 57% kcal fat. The first group's diet was the control-fed diet and included the base and methionine in an amount that represented about 0.86% of the weight of the food (sometimes referred to as “control group,” “control-fed group,” or “group 1”). […] Amounts of selenium-containing compounds used for this and subsequent experiments were determined from pilot studies aimed at identifying minimal doses that still achieve high efficacy. […]
as §6
as §3, with “Two technical replicates were performed for each sample and the statistical significance of the resulting values determined by unpaired two-tailed t-tests using the software package Prism 8 (Graph-Pad Software; La Jolla, Calif.).” left out

adiponectin [10] = assay: Experiment 1: high-fat diet with selenium compounds, plasma adiponectin ELISA; conditions: untreated = 100%, sodium selenite 0.0073% of food
Experimental: as §4, §5, §6

C57BL/6J mice [11] = assay: Experiment 1: high-fat diet with selenium compounds, body mass, fat pad and liver mass; conditions: high-fat diet, untreated = 100%, sodium selenite 0.0073% of food, selenomethionine 0.0036% or 0.0073% (which not stated)
Experimental: as §4
At the beginning of the experiment, the mice were divided into 5 groups with each group being fed one of five isocaloric (5.3 kcal/gm) high-fat diets ad libitum for several weeks. Each high-fat diet comprising a base of 12% kcal protein, 31% kcal carbohydrate, and 57% kcal fat. The first group's diet was the control-fed diet and included the base and methionine in an amount that represented about 0.86% of the weight of the food (sometimes referred to as “control group,” “control-fed group,” or “group 1”). The second group's diet was the methionine-restricted group where the base-diet was restricted to 0.12% methionine as a percentage of the total weight of the food (sometimes referred to as “methionine-restricted group” or “group 2”). The third group was fed the base diet containing 0.86% methionine, which was supplemented with sodium selenite in an amount representing 0.0073% of the total weight of the food (sometimes referred to as “sodium selenite-supplemented group” or “group 3”). The fourth group was fed the base diet containing 0.86% methionine, supplemented with 0.0036% selenomethionine, as a percentage of the total food weight (sometimes referred to as “group 4”). The fifth group was fed the base diet containing 0.86% methionine as a percentage of the total weight of the food, supplemented with 0.0073% selenomethionine as a percentage of the total weight of the food (sometimes referred to as “group 5”). Amounts of selenium-containing compounds used for this and subsequent experiments were determined from pilot studies aimed at identifying minimal doses that still achieve high efficacy. […] The amount of selenomethionine administered to the animals in the fourth and fifth groups was approximately 1/200 and 1/100 times respectively, of the levels of sulfur-containing amino acids (i.e., methionine and cysteine) present in the subjects' diets.
as §2

IGF-1 [12] = assay: Experiment 1: high-fat diet with selenium compounds, plasma IGF-1 ELISA; conditions: sodium selenite 0.0073% of food
Experimental: as §4, §7, §6
as §3, with “Two technical replicates were performed for each sample and the statistical significance of the resulting values determined by unpaired two-tailed t-tests using the software package Prism 8 (Graph-Pad Software; La Jolla, Calif.).” left out

insulin [13] = assay: Experiment 1: high-fat diet with selenium compounds, plasma insulin ELISA; conditions: untreated = 100%, sodium selenite 0.0073% of food
Experimental: as §4, §5, §6

FGF-21 [14] = assay: Experiment 1: high-fat diet with selenium compounds, plasma FGF-21 ELISA; conditions: untreated = 100%, sodium selenite 0.0073% of food
Experimental: as §4, §5, §6

[15] = female mice, 4.3% S-phenyl cysteine, high-fat diet, 9 week interval
[16] = female mice, 4.3% S-phenyl cysteine, high-fat diet, 9 week interval, p<0.001 vs untreated

Compound	Plasma IGF-1, Females (IGF-1 [1]; female mice)	Plasma IGF-1, Males (IGF-1 [1])	Plasma Adiponectin, Females (adiponectin [2])	Plasma Adiponectin, Males (adiponectin [2])	Plasma FGF-21, Females (FGF-21 [3])	Plasma Glucose, Females (plasma glucose [4]; female mice)	Plasma Glucose, Males (plasma glucose [4])	Plasma Leptin, Females (leptin [5]; female mice)	Plasma Leptin, Males (leptin [5])	Plasma Insulin, Females (insulin [6]; female mice)	Plasma Insulin, Males (insulin [6])	Total Body Mass, Females (C57BL/6J mice [7]; female mice)	Inguinal Fat Mass, Females (C57BL/6J mice [7]; female mice)	Perigonadal Fat Mass, Females (C57BL/6J mice [7]; female mice)	Total Body Mass, Males (C57BL/6J mice [7])	Inguinal Fat Mass, Males (C57BL/6J mice [7])	Perigonadal Fat Mass, Males (C57BL/6J mice [7])	further results
NCCCC[C@H](N)C(=O)O [Lysine, lysine]	66%	68%	125%	92%	144%	73%	84%	28%	13%	41%	22%	72%	38%	37%	91%	42%	34%	
N[C@@H](COCc1ccccc1)C(=O)O [O-Benzyl-Serine, O-benzyl serine]	79%	72%	106%	108%	280%	71%	93%	20%	12%	37%	28%	69%	27%	25%	89%	42%	31%	
N[C@@H](CSc1ccccc1)C(=O)O [S-Phenyl-Cysteine, S-phenyl cysteine]	72%	66%	100%	213%	181%	71%	70%	16%	11%	32%	25%	71%	23%	25%	87%	44%	35%	plasma IGF-1 level over time (FIG. 8A) (IGF-1 [1]; [15]): sustained reductions of plasma IGF-1 levels; plasma glucose level over time (FIG. 7A) (plasma glucose [4]; female mice, 4.3% S-phenyl cysteine, high-fat diet, 9 week interval, more efficacious than methionine restriction): maintenance of low plasma glucose; plasma leptin level over time (FIG. 8B) (leptin [5]; [15]): maintenance of low plasma leptin levels; plasma insulin level over time (FIG. 7B) (insulin [6]; [15]): maintenance of low insulin levels; accumulation of inguinal and perigonadal adipose tissue (FIGS. 6A, 6B) (C57BL/6J mice [7]; [16]): robust protection against the accumulation of adipose tissue; total weight gain (FIG. 5) (C57BL/6J mice [7]; [16]): robust prevention of total weight gain
O=[Se](O)O [Sodium Selenite, sodium selenite]																		Plasma Glucose, Females (plasma glucose [8]; female mice): 69%; Plasma Glucose, Males (plasma glucose [8]; male mice): 71%; Plasma Leptin, Females (leptin [9]; female mice, high-fat diet, untreated = 100%, sodium selenite 0.0073% of food): 17%; Plasma Leptin, Males (leptin [9]; male mice, high-fat diet, untreated = 100%, sodium selenite 0.0073% of food): 4%; reduction in circulating leptin as compared with controls (leptin [9]; male mice, sodium selenite-supplemented high-fat diet for 16 weeks): 96%; Plasma Adiponectin, Females (adiponectin [10]; female mice): 134%; Plasma Adiponectin, Males (adiponectin [10]; male mice): 128%; Inguinal Fat Mass, Females (C57BL/6J mice [11]; female mice): 19%; Perigonadal Fat Mass, Females (C57BL/6J mice [11]; female mice): 20%; Total Body Mass, Females (C57BL/6J mice [11]; female mice, 16 weeks): 66%; Inguinal Fat Mass, Males (C57BL/6J mice [11]; male mice): 17%; Perigonadal Fat Mass, Males (C57BL/6J mice [11]; male mice): 20%; Total Body Mass, Males (C57BL/6J mice [11]; male mice, 16 weeks): 60%; Plasma IGF-1, Females (IGF-1 [12]; female mice, untreated = 100%): 35%; Plasma IGF-1, Males (IGF-1 [12]; male mice, untreated = 100%): 63%; reduction of plasma IGF-1 levels as compared with control values (IGF-1 [12]; at the conclusion of experiment 1): 37%; Plasma Insulin, Females (insulin [13]; female mice): 25%; Plasma Insulin, Males (insulin [13]; male mice): 19%; Plasma FGF-21, Females (FGF-21 [14]; female mice): 3971%; Plasma FGF-21, Males (FGF-21 [14]; male mice): 3045%
N[C@@H](Cc1c[nH]c2ccccc12)C(=O)O [Tryptophan, tryptophan]		73%		118%			94%		18%		56%				85%	50%	39%	Plasma FGF-21, Males (FGF-21 [3]; male mice, high-fat diet, tryptophan dose not given): 502%
